# What was measured:
# [1] = target: T1, Dihydroorotate dehydrogenase (quinone), mitochondrial (Homo sapiens, UniProt Q02127); experiment: Inhibition of human DHODH incubated for 30 mins
# [2] = target: T1, Dihydroorotate dehydrogenase (quinone), mitochondrial; experiment: Inhibition of human DHODH at 100 nM for 30 mins relative to control
# [3] = target: T1, Dihydroorotate dehydrogenase (quinone), mitochondrial; experiment: Inhibition of human DHODH at 1 uM for 30 mins relative to control
# [4] = target: T1, Dihydroorotate dehydrogenase (quinone), mitochondrial; experiment: Potency index, ratio of teriflunomide IC50 to test compound IC50 for human DHODH
# [5] = Aqueous solubility of compound; type: physicochemical; conditions: buffer
# [6] = Toxicity in BALB/c mouse assessed as histopathological changes in spleen administered at 300 mg/kg, po for 14 days; type: organism-based; conditions: in vivo, 336 h, time 14 day
# [7] = Cytotoxicity against human HL7702 cells incubated for 96 hrs by MTT assay; type: toxicity, cell-based, L02
# [8] = Toxicity in BALB/c mouse assessed as change in blood HCT administered at 300 mg/kg, po for 14 days; type: organism-based; conditions: in vivo, 336 h, time 14 day
# [9] = Toxicity in BALB/c mouse assessed as change in blood RBC administered at 300 mg/kg, po for 14 days; type: organism-based; conditions: in vivo, 336 h, time 14 day
# [10] = Toxicity in BALB/c mouse assessed as change in blood neutrophil administered at 300 mg/kg, po for 14 days; type: organism-based; conditions: in vivo, 336 h, time 14 day
# [11] = Toxicity in BALB/c mouse assessed as increase in albumin to globulin ratio administered at 300 mg/kg, po for 14 days; type: organism-based; conditions: in vivo, 336 h, time 14 day
# U-937 = experiment: Antiproliferative activity against human U-937 cells incubated for 96 hrs by MTT assay; type: functional, cell-based; conditions: U-937, 96 h
# [12] = Toxicity in BALB/c mouse assessed as histopathological changes in kidney administered at 300 mg/kg, po for 14 days; type: organism-based; conditions: in vivo, 336 h, time 14 day
# [13] = target: Voltage-gated inwardly rectifying potassium channel KCNH2 (Homo sapiens, UniProt Q12809); experiment: Inhibition of human ERG; type: toxicity
# [14] = Lipophilicity, logP of compound; type: physicochemical; conditions: octanol/water
# Raji = experiment: Antiproliferative activity against human Raji cells incubated for 96 hrs by MTT assay; type: functional, cell-based
# [15] = Toxicity in BALB/c mouse assessed as change in blood HGB administered at 300 mg/kg, po for 14 days; type: organism-based; conditions: in vivo, 336 h, time 14 day
# [16] = Toxicity in BALB/c mouse assessed as histopathological changes in lung administered at 300 mg/kg, po for 14 days; type: organism-based; conditions: in vivo, 336 h, time 14 day
# [17] = Toxicity in BALB/c mouse assessed as change in blood MCHC administered at 300 mg/kg, po for 14 days; type: organism-based; conditions: in vivo, 336 h, time 14 day
# [18] = Toxicity in BALB/c mouse assessed as induction of liver inflammation administered at 300 mg/kg, po for 14 days; type: organism-based; conditions: in vivo, 336 h, time 14 day
# [19] = Toxicity in BALB/c mouse assessed as change in blood MCV administered at 300 mg/kg, po for 14 days; type: organism-based; conditions: in vivo, 336 h, time 14 day
# HCT-116 = experiment: Antiproliferative activity against human HCT-116 cells incubated for 96 hrs by MTT assay; type: functional, cell-based; conditions: HCT-116, 96 h
# [20] = Toxicity in BALB/c mouse assessed as change in blood MCH administered at 300 mg/kg, po for 14 days; type: organism-based; conditions: in vivo, 336 h, time 14 day
# Kasumi 1 = experiment: Antiproliferative activity against human Kasumi 1 cells incubated for 96 hrs by MTT assay; type: functional, cell-based; conditions: Kasumi 1, 96 h
# SUD4 = experiment: Antiproliferative activity against human SU-DHL-4 cells incubated for 96 hrs by MTT assay; type: functional, cell-based; conditions: SU-DHL-4, 96 h
# [21] = Selectivity index ratio of IC50 for human HL7702 cells to IC50 for human Raji cells; type: toxicity; conditions: HL7702 cells and Raji cells, read-out: Ratio IC50
# KG-1 = experiment: Antiproliferative activity against human KG-1 cells incubated for 96 hrs by MTT assay; type: functional, cell-based; conditions: KG-1, 96 h
# A-375 = experiment: Antiproliferative activity against human A-375 cells incubated for 96 hrs by MTT assay; type: functional, cell-based; conditions: A-375, 96 h
# [22] = Toxicity in BALB/c mouse assessed as change in blood lymphocytes administered at 300 mg/kg, po for 14 days; type: organism-based, Lymphocyte; conditions: in vivo, 336 h, time 14 day
# [23] = Cytotoxicity against human NCM460 cells incubated for 96 hrs by MTT assay; type: toxicity, cell-based
# [24] = Cytotoxicity against human HCoEpiC cells incubated for 96 hrs by MTT assay; type: toxicity, cell-based
# [25] = Toxicity in BALB/c mouse assessed as change in blood PLT administered at 300 mg/kg, po for 14 days; type: organism-based; conditions: in vivo, 336 h, time 14 day
# [26] = Toxicity in BALB/c mouse assessed as histopathological changes in liver administered at 300 mg/kg, po for 14 days; type: organism-based; conditions: in vivo, 336 h, time 14 day
# [27] = Toxicity in BALB/c mouse assessed as change in blood MPV administered at 300 mg/kg, po for 14 days; type: organism-based; conditions: in vivo, 336 h, time 14 day
# [28] = Toxicity in BALB/c mouse assessed as change in blood RDW administered at 300 mg/kg, po for 14 days; type: organism-based; conditions: in vivo, 336 h, time 14 day
# [29] = Toxicity in BALB/c mouse assessed as change in blood WBC administered at 300 mg/kg, po for 14 days; type: organism-based; conditions: in vivo, 336 h, time 14 day
# T1 sequence (Q02127 whole entry): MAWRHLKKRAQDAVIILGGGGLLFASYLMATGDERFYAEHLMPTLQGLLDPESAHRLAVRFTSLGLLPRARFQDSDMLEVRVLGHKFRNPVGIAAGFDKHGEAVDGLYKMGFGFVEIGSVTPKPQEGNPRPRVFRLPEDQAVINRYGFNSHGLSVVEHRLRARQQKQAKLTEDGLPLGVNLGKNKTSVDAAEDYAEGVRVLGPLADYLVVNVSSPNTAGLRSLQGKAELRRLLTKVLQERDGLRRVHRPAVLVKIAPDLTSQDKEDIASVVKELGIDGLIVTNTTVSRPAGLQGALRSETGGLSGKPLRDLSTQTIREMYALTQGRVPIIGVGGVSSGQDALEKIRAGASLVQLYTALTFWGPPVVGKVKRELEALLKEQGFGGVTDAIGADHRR
# Voltage-gated inwardly rectifying potassium channel KCNH2, sequence (Q12809 whole entry): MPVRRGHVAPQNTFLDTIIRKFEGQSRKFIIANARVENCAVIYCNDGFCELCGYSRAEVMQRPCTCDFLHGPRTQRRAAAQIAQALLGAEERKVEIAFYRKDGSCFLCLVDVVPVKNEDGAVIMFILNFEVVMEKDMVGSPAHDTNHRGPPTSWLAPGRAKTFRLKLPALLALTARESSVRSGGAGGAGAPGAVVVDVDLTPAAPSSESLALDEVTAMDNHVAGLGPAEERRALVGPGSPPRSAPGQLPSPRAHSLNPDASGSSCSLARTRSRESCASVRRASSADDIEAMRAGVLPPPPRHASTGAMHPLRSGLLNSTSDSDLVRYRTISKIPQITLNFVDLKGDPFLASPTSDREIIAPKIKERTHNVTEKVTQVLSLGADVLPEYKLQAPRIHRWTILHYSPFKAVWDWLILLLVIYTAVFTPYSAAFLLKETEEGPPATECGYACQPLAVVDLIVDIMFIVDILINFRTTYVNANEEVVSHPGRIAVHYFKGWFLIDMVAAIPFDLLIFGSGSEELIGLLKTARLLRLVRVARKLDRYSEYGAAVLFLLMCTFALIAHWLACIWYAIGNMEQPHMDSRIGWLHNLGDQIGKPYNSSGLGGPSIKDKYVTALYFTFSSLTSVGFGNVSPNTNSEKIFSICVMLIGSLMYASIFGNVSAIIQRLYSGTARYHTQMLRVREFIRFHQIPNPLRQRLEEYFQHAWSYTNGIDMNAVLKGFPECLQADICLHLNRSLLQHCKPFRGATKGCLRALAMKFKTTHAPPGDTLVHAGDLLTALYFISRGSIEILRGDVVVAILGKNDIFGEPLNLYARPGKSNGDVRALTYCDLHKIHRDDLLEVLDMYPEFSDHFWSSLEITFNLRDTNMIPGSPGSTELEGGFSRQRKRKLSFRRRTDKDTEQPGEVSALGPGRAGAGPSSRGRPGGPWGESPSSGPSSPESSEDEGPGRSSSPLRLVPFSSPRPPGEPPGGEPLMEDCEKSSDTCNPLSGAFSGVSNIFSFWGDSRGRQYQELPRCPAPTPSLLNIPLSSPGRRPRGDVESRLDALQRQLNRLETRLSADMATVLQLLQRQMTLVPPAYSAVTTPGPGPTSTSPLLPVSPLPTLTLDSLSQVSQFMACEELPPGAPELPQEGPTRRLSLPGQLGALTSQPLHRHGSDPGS
smiles,measurement,setting,value
CCC(C)Oc1cc(NC(=O)/C(C#N)=C(/C)O)c(F)cc1C(=O)c1ccccc1 (stereo unspecified),IC50,[1],35.6 nM
same,inhibition,[2],65.4%
same,inhibition,[3],90.1%
C/C(O)=C(\C#N)C(=O)Nc1cc(O[C@@H](C)C(F)(F)F)c(C#N)cc1F,inhibition,[2],31.8%
same,inhibition,[3],76.3%
O=C(c1ccccc1)c1ccc(Nc2ncccc2C(=O)O)cc1,IC50,[1],178 nM
same,inhibition,[2],38.3%
same,inhibition,[3],80.4%
C/C(O)=C(\C#N)C(=O)Nc1cc(O[C@@H](C)C(F)(F)F)c(C(=O)c2ccc3ccccc3c2)cc1F,inhibition,[2],53.4%
same,inhibition,[3],90.2%
COc1ccc(C(=O)c2cc(F)c(NC(=O)/C(C#N)=C(/C)O)cc2O[C@@H](C)C(F)(F)F)cc1,inhibition,[2],52.1%
same,inhibition,[3],90%
COc1cccc(C(=O)c2cc(F)c(NC(=O)/C(C#N)=C(/C)O)cc2O[C@@H](C)C(F)(F)F)c1,IC50,[1],69.1 nM
same,inhibition,[2],57.2%
same,inhibition,[3],92.2%
C/C(O)=C(\C#N)C(=O)Nc1ccc(C(=O)c2ccccc2)cc1,inhibition,[2],30.8%
same,inhibition,[3],57.3%
C/C(O)=C(\C#N)C(=O)Nc1cc(O[C@@H](C)C(F)(F)F)c(C(=O)c2cccc(Cl)c2)cc1F,IC50,[1],54.8 nM
same,inhibition,[2],61.8%
same,inhibition,[3],93.7%
O=C(c1ccccc1)c1ccc(Nc2ncccc2C(=O)O)c(Cl)c1,IC50,[1],63.5 nM
same,inhibition,[2],62.4%
same,inhibition,[3],88.1%
CCOc1cc(NC(=O)/C(C#N)=C(/C)O)c(F)cc1C(=O)c1ccccc1,inhibition,[2],49.8%
same,inhibition,[3],83.1%
C/C(O)=C(\C#N)C(=O)Nc1cc(O[C@@H](C)C(F)(F)F)c(C(=O)c2cccc(F)c2)cc1F,IC50,[1],63.5 nM
same,inhibition,[2],59.3%
same,inhibition,[3],92.1%
C/C(O)=C(\C#N)C(=O)Nc1ccc(C(F)(F)F)cc1,inhibition,[2],21.5%
C/C(O)=C(\C#N)C(=O)Nc1cc(F)c(C(=O)c2ccccc2)cc1F,inhibition,[2],43.8%
same,inhibition,[3],76.3%
O=C(c1ccccc1)c1ccc(Nc2ncccc2C(=O)O)c(F)c1,IC50,[1],66.1 nM
same,inhibition,[2],57.7%
same,inhibition,[3],86.3%
C/C(O)=C(\C#N)C(=O)Nc1cc(OC(C)C)c(C(=O)c2ccccc2)cc1F,IC50,[1],37.1 nM
same,inhibition,[2],66.1%
same,inhibition,[3],89.9%
C/C(O)=C(\C#N)C(=O)Nc1cc(O[C@@H](C)C(F)(F)F)c(C(=O)c2ccc(Cl)cc2)cc1F,IC50,[1],70.5 nM
same,inhibition,[2],56.8%
same,inhibition,[3],91.3%
C/C(O)=C(\C#N)C(=O)Nc1cc(O[C@@H](C)C(F)(F)F)c(C(=O)c2ccc(F)cc2)cc1F,IC50,[1],71.8 nM
same,inhibition,[2],56.4%
same,inhibition,[3],91.6%
C/C(O)=C(\C#N)C(=O)Nc1ccc(C(=O)c2ccccc2)c(F)c1,inhibition,[2],31.7%
same,inhibition,[3],74.1%
C/C(O)=C(\C#N)C(=O)Nc1cc(O[C@@H](C)C(F)(F)F)c(C(=O)c2ccccc2)cc1F,IC50,[1],29 nM
same,inhibition,[2],71.5%
same,inhibition,[3],95.3%
same,Ratio IC50,[4],14
C/C(O)=C(\C#N)C(=O)Nc1ccc(C(=O)c2ccccc2)cc1F,inhibition,[2],32.1%
same,inhibition,[3],70.7%
C/C(O)=C(\C#N)C(=O)Nc1cc(O[C@@H](C)C(F)(F)F)c(C(=O)c2ccccc2F)cc1F,solubility,[5],109 µg/mL
same,Activity,[6],Non-Toxic
same,IC50 at 96 h,[7],2100 nM
same,Activity,[8],Non-Toxic
same,Activity,[9],Non-Toxic
same,Activity,[10],Non-Toxic
same,Activity,[11],Toxic
same,IC50,U-937,520 nM
same,Activity,[12],Non-Toxic
same,IC50,[1],23.9 nM
same,IC50,[13],> 100000 nM
same,logP,[14],2.16
same,inhibition,[2],79.1%
same,IC50,Raji,100 nM
same,Activity,[15],Non-Toxic
same,inhibition,[3],96.9%
same,Activity,[16],Non-Toxic
same,Activity,[17],Non-Toxic
same,Activity,[18],Toxic
same,Activity,[19],Non-Toxic
same,IC50,HCT-116,640 nM
same,Activity,[20],Non-Toxic
same,IC50,Kasumi 1,410 nM
same,IC50,SUD4,1650 nM
same,selectivity ratio,[21],21
same,IC50,KG-1,530 nM
same,IC50,A-375,950 nM
same,Activity,[22],Non-Toxic
same,IC50 at 96 h,[23],> 10000 nM
same,IC50 at 96 h,[24],60500 nM
same,Activity,[25],Non-Toxic
same,Activity,[26],Toxic
same,Activity,[27],Non-Toxic
same,Activity,[28],Non-Toxic
same,Activity,[29],Non-Toxic
O=C(c1ccccc1)c1cc(F)c(Nc2ncccc2C(=O)O)c(F)c1,IC50,[1],35.1 nM
same,inhibition,[2],67.2%
same,inhibition,[3],90.4%
COc1cc(NC(=O)/C(C#N)=C(/C)O)c(F)cc1C(=O)c1ccccc1,inhibition,[2],48.5%
same,inhibition,[3],82.4%
